This passage reports IC50 results from patent US20220143179A1, “DRUG DELIVERY FOR COMBINATION OF EPIGENETIC MODULATION AND IMMUNE CHECKPOINT BLOCKADE” (NORTH CAROLINA STATE UNIVERSITY, priority 2019, published 2022).

Where two headings read alike, the source gives them in different places.

This assay deals with B16F10 melanoma cells. Nature of the assay: MTT assay, cytotoxicity of hypomethylating agents. Type of assay: cell-based. The following applies: Mus musculus, read-out: IC50 against B16F10 melanoma cells. As for the experimental part:
First, MTT assays were conducted to compare the cytotoxicity among these agents and determine the appropriate concentration to induce the expression of TAAs.
B16F10 cells were cultured into 96-well plates at a density of 5×10^3 cells per well overnight. […] Finally, the rate of cell viability was calculated according to the absorbance at 560 nm by a plate reader (Power Wave XS, Bio-TEK, USA).

Consider `Nc1ncn([C@@H]2O[C@H](CO)[C@@H](O)[C@H]2O)c(=O)n1` [AC, 5-Azacytidine], for which the IC50 (B16-F10, MTT, 72 h incubation) was 49 µM.
Still for that read-out and setting: the same measure for `O=c1ncccn1[C@@H]1O[C@H](CO)[C@@H](O)[C@H]1O` [Zeb, Zebularine]: 69.2 µM.
For `Nc1ncn([C@H]2C[C@H](O)[C@@H](CO)O2)c(=O)n1` [DAC, 5-Aza-2′-deoxycytidine], the IC50 (B16-F10, 72 h) was found to be 2.55 µM.
Consider `Nc1nc(=O)n([C@H]2C[C@H](O)[C@@H](CO)O2)cc1F` [5-F, 5-Fluoro-2′-deoxycytidine], for which the half-inhibitory concentration (IC50) (B16-F10, MTT, 72 h incubation) came to 1.05 µM.
